From patent US20080090900A1, “ANTIBIOTIC BUSHRIN” (University of Karachi, priority 2006, published 2008)
≈ marks a conversion by molar mass, not a printed value. Entries after “also recorded” stand apart in the source; their conditions may differ. Read-outs that look alike come from different tables or passages of the source.

Tests used:
Format in all cases: cell-based
Vibrio cholera [1] = test: disc diffusion technique
Klebsiella aerogenes = test: disc diffusion technique; settings: 150 μg disc
Enterococcus faecium [2] = test: disc diffusion technique; settings: 150 μg disc, read-out: Sensitivity (width of inhibition zone)
Gram-positive bacteria = system: Gram-positive bacteria
Protocol: (§1) The minimum inhibitory concentration (MIC) of Compound 1 was determined by the standard microdilution method described in the national committee for clinical laboratory standards (National Committee for Clinical Laboratory Standards, 1997. Method for dilution antimicrobial susceptibility test for bacteria, that grow aerobically, 4th ed., p, 1-29. National Committee for Clinical Laboratory Standards) using Muller Hinton broth medium (Oxoid) incubated at 37° C. for 24 h. […] This substance was slightly active against Streptococcus sp for which the MIC was 200 μg/ml.

Gram negative bacteria = system: Gram negative bacteria
Protocol: as §1

Candida albicans = settings: MIC determination
Proteus morgani = test: disc diffusion technique; settings: 150 μg disc, read-out: Sensitivity (width of inhibition zone)
Clostridium perfringens = system: Clostridium perfringens
[3] = system: MSSA methicillin sensitive staphylococcus aureus
Shewanella putrifacians [4] = test: disc diffusion technique; settings: 150 μg disc, read-out: Sensitivity (width of inhibition zone)
Serratia marcescens = system: Serratia marcescens
Bacillus subtilis [5] = test: Complete killing of Bacillus subtilis
Bacillus cereus = test: disc diffusion technique; settings: 150 μg disc, read-out: Sensitivity (width of inhibition zone)
Enterobacter faecalis = test: disc diffusion technique
Escherichia coli = system: Escherichia coli
Bacillus subtilis [6] = test: disc diffusion technique
Enterococcus faecium [7] = system: Enterococcus faecium
Enterococcus faecalis = test: disc diffusion technique; settings: 150 μg disc, read-out: Sensitivity (width of inhibition zone)
[8] = system: Staphylococcus epidermidis
Vibrio cholera [9] = settings: Vibrio cholerae
Proteus mirabilis = test: disc diffusion technique
Shewanella putrifacians [10] = system: Shewanella putrifacians
[11] = 150 μg disc, read-out: Sensitivity (width of inhibition zone)

SMILES: Cc1cc(O)c2c(c1)C=CC(C)(c1ccoc1)C2 (centres unmarked) [Compound 1, 7-(3-furyl)-3,7-dimethyl-7,8-dihydro-1-naphthalenol]
- antibacterial activity (Vibrio cholera [1]): active; also recorded: activity
- Sensitivity (width of inhibition zone) (Klebsiella aerogenes): −
- zone of inhibition at 150 µg/disc (Enterococcus faecium [2]): 18 to 30 mm
- MIC (Gram-positive bacteria): 50 to 75 µg/mL (≈ 208 to 312 µM)
- MIC (Gram negative bacteria): 75 to 125 µg/mL (≈ 312 to 520 µM)
- activity against Candida albicans (Candida albicans): not found active
- zone of inhibition at 150 µg/disc (Proteus morgani): 18 to 30 mm
- MIC (Clostridium perfringens): 100 µg/mL (≈ 416 µM)
- MIC [3]: 60 µg/mL (≈ 250 µM)
- zone of inhibition at 150 µg/disc (Shewanella putrifacians [4]): 10 to 15 mm
- MIC (Serratia marcescens): 60 µg/mL (≈ 250 µM)
- MIC (Serratia marcescens; Serratia marcescens, read-out: MIC): 60 µg/mL (≈ 250 µM)
- concentration that completely killed (Bacillus subtilis [5]): 100 µg/mL
- zone of inhibition at 150 µg/disc (Bacillus cereus): 18 to 30 mm
- antibacterial activity (Enterobacter faecalis): active; also recorded: activity
- MIC (Escherichia coli): 75 µg/mL (≈ 312 µM)
- antibacterial activity (Bacillus subtilis [6]): active; also recorded: activity
- zone of inhibition at 150 µg/disc (Bacillus subtilis [6]; [11]): 18 to 30 mm
- MIC (Enterococcus faecium [7]): 50 µg/mL (≈ 208 µM)
- zone of inhibition at 150 µg/disc (Enterococcus faecalis): 18 to 30 mm
- MIC [8]: 50 to 100 µg/mL
- MIC ([8]; Staphylococcus epidermidis, read-out: MIC): 50 µg/mL (≈ 208 µM)
- MIC (Vibrio cholera [9]): 60 µg/mL (≈ 250 µM)
- antibacterial activity (Proteus mirabilis): active; also recorded: activity
- zone of inhibition at 150 µg/disc (Proteus mirabilis; [11]): 18 to 30 mm
- MIC (Shewanella putrifacians [10]): 75 µg/mL (≈ 312 µM)
